In PubChem BioAssay (NCI) one finds TGI data, which are given here for 14 molecules.

Test systems include A549 NSCLC; CAKI-1 renal; HCT-116 colon; IGROV1 ovarian; K-562 leukemia; KM12 colon; NCI-H460 lung; OVCAR-8 ovarian; SF-539 CNS; HS 578T breast; MCF7 breast; MDA-MB-435.
Experiment in all cases: NCI-60 cell line screen, 48 h

SMILES strings stand for the structures.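 Interpolation was linear, between the two tested concentrations surrounding the appropriate level; five concentrations were tested over 48 hours in 96-well plates. The concentration for full growth arrest is given as TGI.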

Consider `Cc1ccc(Sc2ccccc2N)cc1`, for which the TGI in the assay with A549 NSCLC is greater than 100 µM; with CAKI-1 renal it was 67 µM; in the assay with HCT-116 colon, greater than 100 µM; in the assay with IGROV1 ovarian, greater than 100 µM; in the assay with K-562 leukemia, greater than 100 µM; with KM12 colon, greater than 100 µM. Further, the TGI was greater than 100 µM with NCI-H460 lung, greater than 100 µM with OVCAR-8 ovarian and 87.9 µM in the assay with SF-539 CNS.

In the case of `COc1ccc(/C=C/C(=O)c2sc(-c3cccnc3)nc2C)cc1`, the TGI with A549 NSCLC was greater than 100 µM; in the assay with CAKI-1 renal, greater than 100 µM; in the assay on IGROV1 ovarian, greater than 100 µM; in the assay with K-562 leukemia, greater than 100 µM; with KM12 colon, 44.5 µM; in the assay on NCI-H460 lung, greater than 100 µM. In addition, the TGI is greater than 100 µM in the assay on OVCAR-8 ovarian and 65 µM in the assay with SF-539 CNS.

Take `CCN(CC)Cc1cc(Nc2ccnc3ccc4nn(C)nc4c23)ccc1O`: the TGI with A549 NSCLC was 80 µM; in the assay with CAKI-1 renal, greater than 100 µM; with HCT-116 colon, 21.5 µM; in the assay with IGROV1 ovarian, 99 µM; in the assay with K-562 leukemia, greater than 100 µM; in the assay on KM12 colon, 25.9 µM. Also, the TGI worked out at 22.5 µM in the assay on NCI-H460 lung, 50.7 µM in the assay on OVCAR-8 ovarian and 26.5 µM in the assay on SF-539 CNS.

On to `CC(C)c1ccc(/C=C/c2cc(C(=O)NNC(=O)NC3CCCCC3)nc(=S)[nH]2)cc1`, for which the TGI in the assay on A549 NSCLC, in the assay on CAKI-1 renal, in the assay with HCT-116 colon, in the assay on IGROV1 ovarian, in the assay with KM12 colon and with NCI-H460 lung was greater than 100 µM each time. Also, the TGI in the assay on OVCAR-8 ovarian and in the assay with SF-539 CNS was greater than 100 µM throughout.

As to `C/C(=N/O)c1sc(-c2nc(C)c(/C(C)=N\O)s2)nc1C`, the TGI in the assay with A549 NSCLC, in the assay on CAKI-1 renal, with HCT-116 colon, in the assay with IGROV1 ovarian, in the assay on K-562 leukemia and in the assay on OVCAR-8 ovarian was greater than 100 µM throughout. Moreover, the TGI in the assay with SF-539 CNS is greater than 100 µM.

For `O=C(O)c1ccc([C@@H]2C(=O)N(O)[C@@H]3C=CC[C@@H]32)cc1`, the TGI in the assay on A549 NSCLC, in the assay on CAKI-1 renal, in the assay on IGROV1 ovarian, in the assay on K-562 leukemia, with KM12 colon and in the assay on OVCAR-8 ovarian was greater than 100 µM in each case. Besides, in the assay with SF-539 CNS, the TGI is greater than 100 µM.

With `Cc1nc2c3c(ccc2[nH]c1=O)C(=O)c1ccccc1C3=O`, the TGI with A549 NSCLC, with CAKI-1 renal, with HCT-116 colon, with IGROV1 ovarian, with K-562 leukemia and in the assay on KM12 colon was greater than 100 µM throughout. For the same molecule, the TGI in the assay on NCI-H460 lung, in the assay with OVCAR-8 ovarian and in the assay with SF-539 CNS was greater than 100 µM each time.

`Cc1cc(S(=O)(=O)NC(=NCCc2ccccc2)NN)c(S)cc1Cl`: the TGI was greater than 100 µM in the assay on A549 NSCLC; greater than 100 µM in the assay with CAKI-1 renal; 71.1 µM with HCT-116 colon; 59.1 µM with HS 578T breast; greater than 100 µM with IGROV1 ovarian; greater than 100 µM in the assay on K-562 leukemia. Also, the TGI was 66.7 µM in the assay with KM12 colon; greater than 100 µM in the assay on MCF7 breast; 61.1 µM in the assay on MDA-MB-435; 35.2 µM with OVCAR-8 ovarian; 51.3 µM in the assay on SF-539 CNS.

As to `COC(=O)C(=O)C(/C(=N/N)C(=O)Nc1ccccc1C(N)=O)c1nc2ccc([N+](=O)[O-])cc2[nH]c1=O` (stereo not drawn), the TGI in the assay on A549 NSCLC, with CAKI-1 renal, with HCT-116 colon, in the assay with IGROV1 ovarian, in the assay with K-562 leukemia and in the assay on KM12 colon was greater than 100 µM in each case. Moreover, the TGI in the assay with NCI-H460 lung, in the assay with OVCAR-8 ovarian and in the assay on SF-539 CNS was greater than 100 µM in each case.

On to `CC1=CC(=O)N(n2c(-c3ccccc3)n[nH]c2=O)C1=O`, for which the TGI in the assay on A549 NSCLC, with CAKI-1 renal, with HCT-116 colon, in the assay on HS 578T breast, in the assay with IGROV1 ovarian and in the assay with K-562 leukemia was greater than 100 µM in each case. Moreover, the TGI in the assay with KM12 colon, in the assay with MCF7 breast, in the assay with MDA-MB-435, in the assay with NCI-H460 lung, with OVCAR-8 ovarian and in the assay with SF-539 CNS was greater than 100 µM in each case.

On to `CC(C)OP(=O)(OC(C)C)C(=NCCN=C(NNc1ccccc1[N+](=O)[O-])P(=O)(OC(C)C)OC(C)C)NNc1ccccc1[N+](=O)[O-]`, for which the TGI in the assay on A549 NSCLC is greater than 100 µM; in the assay on CAKI-1 renal, greater than 100 µM; in the assay with HCT-116 colon it was greater than 100 µM; in the assay on IGROV1 ovarian, 82.7 µM; in the assay with K-562 leukemia it was greater than 100 µM; in the assay on KM12 colon, greater than 100 µM. In addition, the TGI with OVCAR-8 ovarian and in the assay with SF-539 CNS was greater than 100 µM throughout.

`CC1=C(C(=O)CC(=O)C(=O)Nc2ccc(C)c(C)c2)Sc2ccccc2N1`: the TGI with A549 NSCLC, in the assay on CAKI-1 renal, with HCT-116 colon, in the assay on IGROV1 ovarian, in the assay with KM12 colon and with NCI-H460 lung was greater than 100 µM each time. For the same molecule, the TGI with OVCAR-8 ovarian and in the assay on SF-539 CNS was greater than 100 µM each time.

In the case of `COc1ccc2c(c1)[n+]([O-])c(/C(C)=N/NC(=O)c1ccccc1O)c(C)[n+]2[O-]`, the TGI in the assay with A549 NSCLC, in the assay with CAKI-1 renal, in the assay with HCT-116 colon, in the assay on IGROV1 ovarian, with K-562 leukemia and in the assay on KM12 colon was greater than 100 µM in each case. Moreover, the TGI in the assay on NCI-H460 lung, in the assay with OVCAR-8 ovarian and with SF-539 CNS was greater than 100 µM each time.

For `CCOC(=O)C1SC(=Nc2ccc(Cl)cc2Cl)N=C1C` (stereo not drawn), the TGI in the assay with A549 NSCLC, with CAKI-1 renal, in the assay on HCT-116 colon, in the assay with IGROV1 ovarian, in the assay with K-562 leukemia and in the assay with KM12 colon was greater than 100 µM each time. The TGI in the assay on NCI-H460 lung, in the assay with OVCAR-8 ovarian and in the assay on SF-539 CNS was greater than 100 µM each time.
